According to ChEMBL document CHEMBL4354808, “Drugs for the Treatment of Zika Virus Infection” (J Med Chem, 2020):
pEC50, pIC50, pKd, pKi: −log10 of the molar value. ≈ marks a conversion by molar mass, not a printed value.

Legend:
Nonstructural protein 3 [1] = target: T1, Nonstructural protein 3 (Zika virus, UniProt A0A024AXB9); assay: Inhibition of Zika virus NS2B (1421 to 1469 residues) - NS3 (1503 to 1688 residues) expressed in Escherichia coli BL21(DE3) cells using Dabcyl-KTSAVLQSGFRKME-Edans as substrate after 11 mins by FRET assay
NS5 [2] = target: T2, NS5 (Zika virus, UniProt A0A143MHK7); assay: Inhibition of Zika virus RNA-dependent RNA polymerase using poly(rC)/rG13 as substrate after 45 mins
Zika virus [3] = assay: Antiviral activity against Zika virus PLCal_ZV infected in Huh7 cells by Promega Viral ToxGlo Assay; assay type: functional, organism-based; conditions: Huh-7
[4] = Cytotoxicity against golden hamster BHK21 cells by Promega Viral ToxGlo Assay; assay type: cell-based, Mesocricetus auratus; conditions: BHK-21 cells
[5] = Cytotoxicity against African green monkey Vero cells; assay type: cell-based; conditions: chlorocebus sabaeus
[6] = Cytotoxicity against human Neural progenitor cells; assay type: cell-based
[7] = Cytotoxicity against human HuH7 cells; assay type: cell-based; conditions: Huh-7 cells
[8] = Cytotoxicity against human RD cells; assay type: cell-based
NS5 [9] = target: T2, NS5; assay: Binding affinity to Zika virus Methyltransferase
NS5 [10] = target: T2, NS5; assay: Inhibition of Zika virus MTase (4 to 278 residues) expressed in Escherichia coli T7 using GpppAC4 as substrate in presence of [3H]SAM incubated for 30 mins by liquid scintillation counter method
NS5 [11] = target: T2, NS5; assay: Inhibition of Zika virus MTase (4 to 278 residues) expressed in Escherichia coli T7 using A27 RNA as substrate in presence of [3H]SAM incubated for 30 mins by liquid scintillation counter method
Nonstructural protein 3 [12] = target: T1, Nonstructural protein 3; assay: Inhibition of Zika virus Asian/8375 NS2B (48 to 100 residues)-NS3 (14 to 185 residues) expressed in Escherichia coli BL21 (DE3) Star cells preincubated for 30 mins followed by Bz-nKRR-AMC substrate addition
Zika virus [13] = assay: Antiviral activity against Zika virus PLCal_ZV infected in African green monkey Vero cells assessed as reduction in viral titer after 1 hr by plaque assay; assay type: functional, organism-based
Zika virus [14] = assay: Antiviral activity against Zika virus PLCal_ZV infected in human Neural progenitor cells; assay type: functional, organism-based
Nonstructural protein 3 [15] = target: T1, Nonstructural protein 3; assay: Inhibition of N-terminal His6-tagged Zika virus NS2B (49 to 95 residues) - NS3 (1 to 170 residues) protease domain expressed in Escherichia coli BL21-Gold (DE3) cells preincubated for 10 mins followed by Bz-Nle-Lys-Lys-Arg-AMC substrate addition
Zika virus [16] = assay: Antiviral activity against Zika virus MR766 infected in African green monkey Vero cells by plaque assay; assay type: functional, organism-based
[17] = Cytotoxicity against BHK21 cells after 24 to 48 hrs by CCK8 assay; assay type: cell-based, Mesocricetus auratus; conditions: hamster, BHK-21 cells
Zika virus [18] = assay: Antiviral activity against Zika virus Mex2-81 infected in human Jeg-3 cells assessed as reduction in virus-induced toxicity preincubated with cells for 1 hr followed by viral infection and measured 36 hrs post infection; assay type: functional, organism-based; conditions: Mex2-81, JEG-3
[19] = Cytotoxicity against human JEG3 cells incubated for 36 hrs by resazurin-dye based Alamar blue assay; assay type: cell-based; conditions: JEG-3 cells
[20] = Cytotoxicity against African green monkey Vero cells incubated for 4 days by luminescence method; assay type: cell-based; conditions: chlorocebus sabaeus
[21] = Cytotoxicity against human NSC by CellTiter-Glo assay; assay type: cell-based; conditions: NSC cells
[22] = Cytotoxicity against African green monkey Vero E6 cells by the MTS method; assay type: cell-based, Vero C1008; conditions: chlorocebus sabaeus
[23] = Selectivity ratio of CC50 for African green monkey Vero E6 cells to EC50 for Zika virus MR766 infected in African green monkey Vero E6 cells; assay type: toxicity, Vero C1008; conditions: read-out: Ratio CC50/EC50
Nonstructural protein 3 [24] = target: T1, Nonstructural protein 3; assay: Inhibition of N-terminal His6-tagged Zika virus NS2B (45 to 96 residues) - NS3 (1 to 177 residues) protease domain expressed in Escherichia coli BL21-Gold (DE3) cells or Escherichia coli BL21 Rosetta (DE3) preincubated for 30 mins followed by Bz-nKRR-AM substrate addition measured over 10 mins at 60 secs interval by fluorescence method
[25] = Cytotoxicity against HEK293 cells; assay type: cell-based; conditions: human
[26] = Cytotoxicity against human SNB19 cells; assay type: cell-based; conditions: SNB-19 cells
[27] = Cytotoxicity against African green monkey Vero cells by visual method; assay type: cell-based; conditions: chlorocebus sabaeus
Genome polyprotein = Genome polyprotein (dengue virus type 2, UniProt P29990); assay: Inhibition of Dengue virus 2 NS2B (48 to 95 residues)-NS3 (1 to 185 residues) expressed in Escherichia coli BL21 Rosetta (DE3) incubated for 30 mins followed by Abz-RRRRSAG-nTyr substrate addition
Zika virus [28] = assay: Antiviral activity against Zika virus Puerto Rico/PRVABC59 infected in human A549 cells after 48 hrs by plaque reduction assay; assay type: functional, organism-based; conditions: Puerto Rico/PRVABC59, A549, 48 h
Yellow fever virus = assay: Antiviral activity against Yellow fever virus 17D V3 Vaccine infected in human A549 cells after 48 hrs by plaque reduction assay; assay type: functional, organism-based; conditions: A549, 48 h
dengue virus type 2 = assay: Antiviral activity against Dengue virus 2 New Guinea C infected in human A549 cells after 48 hrs by plaque reduction assay; assay type: functional, organism-based; conditions: A549, 48 h
West Nile virus = assay: Antiviral activity against West Nile virus NY003356V2 infected in human A549 cells after 48 hrs by plaque reduction assay; assay type: functional, organism-based; conditions: NY003356V2, A549, 48 h
[29] = Cytotoxicity against human A549 cells after 42 hrs by WST-8 cell proliferation assay; assay type: cell-based
Nonstructural protein 3 [30] = target: T1, Nonstructural protein 3; assay: Inhibition of wild type Zika virus NS2B-NS3 protease preincubated for 30 mins followed by Pyr-RTKR-AMC substrate addition
[31] = Cytotoxicity against human Neural progenitor cells after 24 hrs by ATP-Lite assay; assay type: cell-based
[32] = Half life in SJL mouse infected with Zika virus PA259459 at 10 mg/kg, ip measured up to 2 hr post infection by LC-MS/MS analysis; assay type: ADME, organism-based; conditions: in vivo
Zika virus [33] = assay: Antiviral activity against Zika virus PA 259459 infected in SJL mouse assessed as decrease in viral RNA at 30 mg/kg dosed 5 times per day via drinking water for 5 days by RT-PCR relative to control; assay type: functional
[34] = Cytotoxicity against African green monkey Vero cells by MTT assay; assay type: cell-based; conditions: chlorocebus sabaeus
[35] = Cytotoxicity against human HuH7 cells by MTT assay; assay type: cell-based; conditions: Huh-7 cells

T1 sequence (A0A024AXB9 whole entry, the tested form may be a part): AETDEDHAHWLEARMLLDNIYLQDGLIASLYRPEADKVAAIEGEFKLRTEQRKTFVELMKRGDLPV
T2 sequence (A0A143MHK7 whole entry): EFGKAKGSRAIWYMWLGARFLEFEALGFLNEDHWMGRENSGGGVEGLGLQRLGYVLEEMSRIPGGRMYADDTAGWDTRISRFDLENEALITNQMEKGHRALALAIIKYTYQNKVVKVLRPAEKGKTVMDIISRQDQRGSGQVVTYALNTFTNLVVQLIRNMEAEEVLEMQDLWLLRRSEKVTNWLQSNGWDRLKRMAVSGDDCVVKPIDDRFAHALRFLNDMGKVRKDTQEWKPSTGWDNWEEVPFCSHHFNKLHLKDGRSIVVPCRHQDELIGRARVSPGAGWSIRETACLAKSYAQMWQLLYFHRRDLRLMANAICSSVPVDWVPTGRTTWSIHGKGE
Chain of Genome polyprotein (P29990 1346-1475 limits assumed): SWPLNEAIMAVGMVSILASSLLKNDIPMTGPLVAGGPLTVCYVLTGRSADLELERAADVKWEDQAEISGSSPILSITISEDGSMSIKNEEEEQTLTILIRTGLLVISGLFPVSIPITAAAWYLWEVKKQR
Chain of Genome polyprotein (P29990 1476-2093 limits assumed): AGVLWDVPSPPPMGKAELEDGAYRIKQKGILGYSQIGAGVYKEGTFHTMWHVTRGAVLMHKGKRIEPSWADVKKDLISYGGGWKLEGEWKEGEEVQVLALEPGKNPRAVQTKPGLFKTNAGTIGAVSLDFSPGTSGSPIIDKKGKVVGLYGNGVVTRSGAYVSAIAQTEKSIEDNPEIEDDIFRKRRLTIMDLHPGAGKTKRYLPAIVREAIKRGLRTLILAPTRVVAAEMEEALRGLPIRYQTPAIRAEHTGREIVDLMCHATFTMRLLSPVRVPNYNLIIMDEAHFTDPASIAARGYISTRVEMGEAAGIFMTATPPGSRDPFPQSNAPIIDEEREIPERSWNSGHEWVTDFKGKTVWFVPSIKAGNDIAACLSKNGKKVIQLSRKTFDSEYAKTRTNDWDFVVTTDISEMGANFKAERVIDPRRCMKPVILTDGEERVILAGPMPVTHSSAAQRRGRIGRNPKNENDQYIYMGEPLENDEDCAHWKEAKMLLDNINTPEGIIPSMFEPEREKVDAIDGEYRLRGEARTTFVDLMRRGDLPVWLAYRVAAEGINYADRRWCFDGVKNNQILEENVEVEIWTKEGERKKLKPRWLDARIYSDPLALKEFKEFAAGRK

O=C(O[C@@H]1Cc2c(O)cc(O)cc2O[C@H]1c1cc(O)c(O)c(O)c1)c1cc(O)c(O)c(O)c1 [GALLOCATECHIN GALLATE]
pIC50 (Nonstructural protein 3 [1]): 4.00

[N-]=[N+]=NCc1cnc(C(=O)NO)c(O)c1CO
pIC50 (NS5 [2]): 5.28
pEC50 (Zika virus [3]): 5.34
CC50 [4]: 22 µM

CC(C)OC(=O)[C@H](C)N[P@](=O)(OC[C@H]1O[C@@H](n2ccc(=O)[nH]c2=O)[C@](C)(F)[C@@H]1O)Oc1ccccc1 [SOFOSBUVIR]
CC50 [5]: 360 to 512 µM
CC50 [6]: 360 to 512 µM

Nc1ncnc2c([C@@H]3N[C@H](CO)[C@@H](O)[C@H]3O)c[nH]c12
CC50 [5]: > 89 µM
CC50 [7]: > 89 µM
CC50 [8]: > 89 µM

C[S+](CC[C@H](N)C(=O)[O-])C[C@H]1O[C@@H](n2cnc3c(N)ncnc32)[C@H](O)[C@@H]1O (some centres undefined) [ADEMETIONINE]
pKd (NS5 [9]): 5.59

Nc1ncnc2c1ncn2[C@@H]1O[C@H](CN(CC[C@H](N)C(=O)O)Cc2ccc(F)cc2)[C@@H](O)[C@H]1O
pKd (NS5 [9]): 4.61

C[C@@H]1O[C@@H](OC[C@H]2O[C@@H](Oc3c(-c4ccc(O)c(O)c4)oc4cc(O)cc(O)c4c3=O)[C@H](O)[C@@H](O)[C@@H]2O)[C@H](O)[C@H](O)[C@H]1O [RUTIN]
pIC50 (Nonstructural protein 3 [1]): 3.98

Nc1ncnc2c1ncn2[C@@H]1O[C@H](C[C@@H](N)CC[C@H](N)C(=O)O)[C@@H](O)[C@H]1O [SINEFUNGIN]
pIC50 (NS5 [10]): 5.93
pIC50 (NS5 [11]): 5.79

O=c1c(O)c(-c2cc(O)c(O)c(O)c2)oc2cc(O)cc(O)c12 [MYRICETIN]
pIC50 (Nonstructural protein 3 [1]): 4.66
pIC50 (Nonstructural protein 3 [12]): 5.89
pKi (Nonstructural protein 3 [12]): 6.10

O=C(O[C@@H]1Cc2c(O)cc(O)cc2O[C@@H]1c1ccc(O)c(O)c1)c1cc(O)c(O)c(O)c1 [EPICATECHIN GALLATE]
pIC50 (Nonstructural protein 3 [1]): 4.05

CCN(CC)Cc1cc(Nc2ccnc3cc(Cl)ccc23)ccc1O [AMODIAQUINE]
pEC50 (Zika virus [13]): 5.36 to 5.55
pEC50 (Zika virus [14]): 5.36 to 5.55

N=C(N)NCCC[C@H](NC(=O)[C@H](Cc1ccc(CN)cc1)NC(=O)c1ccccc1)B(O)O
pIC50 (Nonstructural protein 3 [15]): 6.60
pKi (Nonstructural protein 3 [15]): 7.40

CC(C)(C)NCc1ccc(Nc2ccnc3cc(Cl)ccc23)cc1O [GSK-369796]
pEC50 (Zika virus [16]): 5.59
CC50 [17]: 98 µM

CO[C@H]1CC[C@@H](O[C@H]2C[C@H]([C@]3(C)CC[C@]4(C[C@H](O)[C@@H](C)[C@@H]([C@@H](C)/C=C(\C)C(=O)[C@H](C)C[C@H](C)C(=O)O)O4)O3)O[C@]3(O[C@@H]([C@H]4O[C@@](O)(CO)[C@H](C)C[C@@H]4C)C[C@@H]3C)[C@@H]2C)O[C@@H]1C
pEC50 (Zika virus [18]): 6.01
CC50 at 36 h [19]: 6.1 µM

CCN(CC)CCCC(C)Nc1c2ccc(Cl)cc2nc2ccc(OC)cc12 (centres undefined) [QUINACRINE]
pEC50 (Zika virus [16]): 5.64
CC50 [17]: 18.6 µM

O=C(NC(=S)Nc1ccc(N2CCN(C(=O)c3cccs3)CC2)cc1)c1sc2ccccc2c1Cl
CC50 at 96 h [20]: 19.4 µM

O=c1cc(-c2ccc(O)c(O)c2)oc2cc(O)cc(O)c12 [LUTEOLIN]
pIC50 (Nonstructural protein 3 [1]): 4.28

O=C(O[C@@H]1Cc2c(O)cc(O)cc2O[C@@H]1c1cc(O)c(O)c(O)c1)c1cc(O)c(O)c(O)c1 [EPIGALOCATECHIN GALLATE]
pIC50 (Nonstructural protein 3 [1]): 4.06

C#C[C@@]1(O)[C@H](O)[C@@H](COP(=O)(N[C@@H](C)C(=O)OC(C)C)Oc2ccccc2)O[C@H]1n1ccc(=O)[nH]c1=O (some centres undefined)
CC50 [21]: > 50 µM

CCCCCOCc1c(Nc2ccc(S(N)(=O)=O)cc2)nc(N2CCOCC2)nc1C(=O)NCCOc1ccccc1
CC50 [22]: > 83.5 µM
selectivity ratio [23]: > 41

COc1ccc(S(=O)(=O)n2nc(OC(=O)c3ccccc3)cc2N)cc1
pIC50 (Nonstructural protein 3 [24]): 5.82

CC[C@H]1CN2CCc3cc(OC)c(OC)cc3[C@@H]2C[C@@H]1C[C@H]1NCCc2cc(OC)c(OC)cc21 [EMETINE]
CC50 [25]: 0.18 µM
CC50 [26]: 0.086 µM

Nc1ncnc2c1ccn2[C@@H]1O[C@H](CO)[C@@H](O)[C@H]1O [TUBERCIDIN]
CC50 [27]: > 357 µM

Nc1cc(C(F)(F)F)ccc1NC(=O)Nc1cccc(S(=O)(=O)Nc2ccc(C(=O)O)cc2)c1
pIC50 (NS5 [10]): 4.62
pIC50 (NS5 [11]): 4.10

O=C1C=C/C(=N/Nc2ccc([N+](=O)[O-])cc2Cl)C=C1C(=O)Nc1cccc(Cl)c1
pIC50 (Genome polyprotein): 5.74
pEC50 (Zika virus [28]): 6.00
pEC50 (Yellow fever virus): 6.55
pEC50 (dengue virus type 2): 6.09
pEC50 (West Nile virus): 5.90
CC50 at 42 h [29]: 48.8 µM

Clc1nc2n[nH]nc2nc1Cl
pIC50 (Nonstructural protein 3 [30]): 6.09
CC50 at 24 h [31]: > 50 µM
half-life [32]: 20 min
fold change (FC) (Zika virus [33]): 10

CC(C)C[C@H]1C(=O)N2CCC[C@H]2[C@]2(O)O[C@](NC(=O)[C@@H]3C=C4c5cccc6[nH]c(Br)c(c56)C[C@H]4N(C)C3)(C(C)C)C(=O)N12 [BROMOCRIPTINE]
CC50 [34]: > 40 µM

NC(=O)c1ncn([C@@H]2O[C@H](CO)[C@@H](O)[C@H]2O)n1 [RIBAVIRIN]
CC50 [5]: > 100 µM

CO[C@@H]1[C@@H](OC(N)=O)[C@@H](O)[C@H](Oc2ccc3c(O)c(NC(=O)c4ccc(O)c(CC=C(C)C)c4)c(=O)oc3c2C)OC1(C)C [NOVOBIOCIN]
CC50 [34]: 850 µg/mL
CC50 [35]: 1100 µg/mL (≈ 1800 µM)

CC(C)OC(=O)[C@H](C)NP(=O)(OC[C@H]1O[C@@H](n2ccc(=O)[nH]c2=O)[C@H](O)[C@@H]1O)Oc1ccccc1 (some centres undefined)
CC50 [21]: 47 µM

O=c1c(O[C@@H]2O[C@H](CO)[C@@H](O)[C@H](O)[C@H]2O)c(-c2ccc(O)cc2)oc2cc(O)cc(O)c12 [ASTRAGALIN]
pIC50 (Nonstructural protein 3 [1]): 3.95

O[C@@H](c1cc(C(F)(F)F)nc2c(C(F)(F)F)cccc12)[C@H]1CCCCN1 [(S,R)-MEFLOQUINE]
pEC50 (Zika virus [16]): 5.40
CC50 [17]: 20.4 µM

C#C[C@@]1(O)[C@H](O)[C@@H](CO)O[C@H]1n1ccc2c(N)ncnc21
CC50 [5]: > 50 µM
